Experimental data as given in patent US11981658B2, “Substituted aminopyridine compounds as EGFR inhibitors” (YUHAN CORPORATION, priority 2021, dated 2024).
Read-outs that look alike come from different tables or passages of the source.

Legend:
EGFR wildtype (WT) = EGFR wildtype (WT) (Homo sapiens, UniProt P00533); test: Biochemical EGFR kinase inhibition assay (Lance Ultra TR-FRET), wildtype
In short: (§1)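 Kinase activity is measured by TR-FRET phosphopeptide detection. Compounds span 0.003 μM to 10 μM; the 1 h reaction at room temperature is quenched with EDTA, then labelled antibody (2 nM) is incubated 60 min before reading.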

EGFR Del19/C797S = EGFR Del19/C797S (Homo sapiens, UniProt P00533, C797S/DEL746-750); test: Biochemical EGFR kinase inhibition assay (Lance Ultra TR-FRET), double mutant del19/C797S
EGFR Del19/C797S, sequence (P00533 with tags, fused parts or gaps DEL746-750/C797S): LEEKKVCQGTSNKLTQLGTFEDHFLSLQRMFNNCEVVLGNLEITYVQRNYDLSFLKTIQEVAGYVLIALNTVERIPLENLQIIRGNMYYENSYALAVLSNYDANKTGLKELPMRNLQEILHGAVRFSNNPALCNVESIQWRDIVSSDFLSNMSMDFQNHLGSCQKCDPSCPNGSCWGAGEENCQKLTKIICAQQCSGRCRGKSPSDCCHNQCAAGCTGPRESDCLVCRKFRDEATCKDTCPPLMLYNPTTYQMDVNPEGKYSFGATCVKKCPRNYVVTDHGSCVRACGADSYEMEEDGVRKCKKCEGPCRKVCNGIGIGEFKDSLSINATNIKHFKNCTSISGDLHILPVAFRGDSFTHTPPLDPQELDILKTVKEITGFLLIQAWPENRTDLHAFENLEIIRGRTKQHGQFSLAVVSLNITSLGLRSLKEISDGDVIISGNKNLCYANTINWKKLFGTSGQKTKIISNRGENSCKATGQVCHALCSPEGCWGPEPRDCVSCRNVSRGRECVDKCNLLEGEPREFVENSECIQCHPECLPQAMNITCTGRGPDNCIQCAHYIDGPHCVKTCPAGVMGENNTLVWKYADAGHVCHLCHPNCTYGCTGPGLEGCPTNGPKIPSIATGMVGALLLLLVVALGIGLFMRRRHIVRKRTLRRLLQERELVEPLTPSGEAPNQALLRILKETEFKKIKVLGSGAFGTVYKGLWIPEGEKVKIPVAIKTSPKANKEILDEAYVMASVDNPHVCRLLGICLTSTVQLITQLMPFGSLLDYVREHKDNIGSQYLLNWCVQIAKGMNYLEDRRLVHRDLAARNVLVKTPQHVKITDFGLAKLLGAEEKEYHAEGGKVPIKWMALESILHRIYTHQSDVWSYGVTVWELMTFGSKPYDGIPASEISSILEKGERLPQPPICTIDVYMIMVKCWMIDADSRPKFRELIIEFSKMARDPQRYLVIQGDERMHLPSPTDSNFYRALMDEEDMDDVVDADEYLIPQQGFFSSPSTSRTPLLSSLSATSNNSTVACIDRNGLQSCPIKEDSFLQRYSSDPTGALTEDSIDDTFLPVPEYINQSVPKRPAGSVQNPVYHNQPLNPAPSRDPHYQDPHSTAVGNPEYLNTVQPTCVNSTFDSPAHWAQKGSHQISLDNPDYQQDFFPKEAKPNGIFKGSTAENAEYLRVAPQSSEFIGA
In short: as §1

EGFR L858R/T790M/C797S = EGFR L858R/T790M/C797S (Homo sapiens, UniProt P00533, C797S/L858R/T790M); test: Biochemical EGFR kinase inhibition assay (Lance Ultra TR-FRET), triple mutant L858R/T790M/C797S
EGFR L858R/T790M/C797S, sequence (P00533 25-1210 T790M/C797S/L858R): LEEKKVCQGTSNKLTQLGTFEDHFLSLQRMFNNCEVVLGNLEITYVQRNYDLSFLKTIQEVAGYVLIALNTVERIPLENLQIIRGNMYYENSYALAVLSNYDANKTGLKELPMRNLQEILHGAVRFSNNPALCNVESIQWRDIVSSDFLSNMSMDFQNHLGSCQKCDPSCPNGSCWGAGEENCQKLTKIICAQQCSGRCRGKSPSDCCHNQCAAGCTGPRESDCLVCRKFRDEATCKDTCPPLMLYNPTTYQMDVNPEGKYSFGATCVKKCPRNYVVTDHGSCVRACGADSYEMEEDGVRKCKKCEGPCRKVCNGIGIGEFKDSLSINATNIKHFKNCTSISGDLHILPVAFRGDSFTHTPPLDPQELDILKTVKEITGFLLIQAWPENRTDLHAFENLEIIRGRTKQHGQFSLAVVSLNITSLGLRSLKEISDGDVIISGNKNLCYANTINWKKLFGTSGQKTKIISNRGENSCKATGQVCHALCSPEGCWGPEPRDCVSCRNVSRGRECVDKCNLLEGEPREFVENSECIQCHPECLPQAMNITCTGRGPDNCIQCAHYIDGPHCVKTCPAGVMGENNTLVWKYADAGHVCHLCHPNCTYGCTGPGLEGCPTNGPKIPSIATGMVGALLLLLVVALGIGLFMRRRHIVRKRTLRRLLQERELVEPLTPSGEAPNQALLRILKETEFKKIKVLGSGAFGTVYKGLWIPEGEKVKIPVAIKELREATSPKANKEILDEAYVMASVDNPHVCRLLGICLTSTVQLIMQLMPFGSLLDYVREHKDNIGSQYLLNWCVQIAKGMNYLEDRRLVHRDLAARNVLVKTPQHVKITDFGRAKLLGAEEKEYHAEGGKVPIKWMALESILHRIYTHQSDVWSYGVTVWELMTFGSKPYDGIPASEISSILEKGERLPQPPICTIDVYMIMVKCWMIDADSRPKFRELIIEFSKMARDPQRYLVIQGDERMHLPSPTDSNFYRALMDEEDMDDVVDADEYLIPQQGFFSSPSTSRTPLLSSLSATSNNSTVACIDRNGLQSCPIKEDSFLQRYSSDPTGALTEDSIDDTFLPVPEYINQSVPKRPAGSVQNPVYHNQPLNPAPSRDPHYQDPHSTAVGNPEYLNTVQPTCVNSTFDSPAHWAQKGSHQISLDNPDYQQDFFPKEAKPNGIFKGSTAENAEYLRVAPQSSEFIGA
In short: as §1

EGFR Del19/T790M/C797S = EGFR Del19/T790M/C797S (Homo sapiens, UniProt P00533, C797S/DEL746-750/T790M); test: Biochemical EGFR kinase inhibition assay (Lance Ultra TR-FRET), triple mutant del19/T790M/C797S
EGFR Del19/T790M/C797S, sequence (P00533 with tags, fused parts or gaps DEL746-750/T790M/C797S): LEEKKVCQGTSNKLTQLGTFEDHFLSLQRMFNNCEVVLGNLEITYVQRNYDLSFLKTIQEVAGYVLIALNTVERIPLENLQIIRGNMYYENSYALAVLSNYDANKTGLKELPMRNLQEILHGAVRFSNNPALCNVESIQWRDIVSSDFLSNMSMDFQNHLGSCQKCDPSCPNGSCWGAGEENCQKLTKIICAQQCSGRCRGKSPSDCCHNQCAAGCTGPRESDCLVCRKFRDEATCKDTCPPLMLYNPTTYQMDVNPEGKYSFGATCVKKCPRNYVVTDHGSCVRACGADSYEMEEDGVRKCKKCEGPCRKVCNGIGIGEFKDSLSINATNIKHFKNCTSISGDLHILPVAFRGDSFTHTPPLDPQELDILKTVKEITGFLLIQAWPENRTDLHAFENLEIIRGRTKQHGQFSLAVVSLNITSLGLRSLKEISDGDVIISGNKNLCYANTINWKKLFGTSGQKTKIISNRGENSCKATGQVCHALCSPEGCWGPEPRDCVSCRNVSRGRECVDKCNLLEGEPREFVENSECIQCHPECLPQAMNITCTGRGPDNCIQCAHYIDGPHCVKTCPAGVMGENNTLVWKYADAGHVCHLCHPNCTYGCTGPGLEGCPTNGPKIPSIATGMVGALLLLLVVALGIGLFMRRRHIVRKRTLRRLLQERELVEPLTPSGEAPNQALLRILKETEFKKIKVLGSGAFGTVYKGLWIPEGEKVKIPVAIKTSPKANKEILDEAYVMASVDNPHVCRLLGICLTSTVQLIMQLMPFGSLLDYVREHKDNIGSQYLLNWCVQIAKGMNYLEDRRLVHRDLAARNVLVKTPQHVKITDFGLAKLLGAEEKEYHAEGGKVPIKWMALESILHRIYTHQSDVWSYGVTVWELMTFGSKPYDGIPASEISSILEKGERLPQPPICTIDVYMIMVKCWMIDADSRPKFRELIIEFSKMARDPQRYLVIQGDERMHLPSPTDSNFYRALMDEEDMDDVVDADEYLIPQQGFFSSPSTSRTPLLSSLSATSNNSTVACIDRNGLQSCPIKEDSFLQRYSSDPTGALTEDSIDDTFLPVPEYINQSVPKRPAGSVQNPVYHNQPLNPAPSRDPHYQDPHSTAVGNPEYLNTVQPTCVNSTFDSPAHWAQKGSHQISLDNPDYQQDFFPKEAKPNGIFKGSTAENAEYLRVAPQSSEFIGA
In short: as §1

EGFR L858R/C797S = EGFR L858R/C797S (Homo sapiens, UniProt P00533, C797S/L858R); test: Biochemical EGFR kinase inhibition assay (Lance Ultra TR-FRET), double mutant L858R/C797S
In short: as §1

[1] = ATP at Km, read-out: IC50 WT (nM), Km ATP
[2] = ATP at Km, read-out: IC50 Del19/C797S (nM), Km ATP
[3] = IC50 Del19/C797S (nM), 100 μM ATP
[4] = ATP at Km, read-out: IC50 L858R/T790M/C797S (nM), Km ATP
[5] = IC50 L858R/T790M/C797S (nM), 100 μM ATP
[6] = ATP at Km, read-out: IC50 Del19/T790M/C797S (nM), Km ATP
[7] = IC50 Del19/T790M/C797S (nM), 100 μM ATP
[8] = ATP at Km, read-out: IC50 L858R/C797S (nM), Km ATP
[9] = IC50 L858R/C797S (nM), 100 μM ATP
[10] = read-out: IC50 WT (nM), 100 μM ATP
[11] = read-out: IC50 Del19/C797S (nM), 100 μM ATP
[12] = read-out: IC50 L858R/T790M/C797S (nM), 100 μM ATP
[13] = read-out: IC50 Del19/T790M/C797S (nM), 100 μM ATP
[14] = read-out: IC50 L858R/C797S (nM), 100 μM ATP

EGFR wildtype (WT), sequence (P00533 25-1210): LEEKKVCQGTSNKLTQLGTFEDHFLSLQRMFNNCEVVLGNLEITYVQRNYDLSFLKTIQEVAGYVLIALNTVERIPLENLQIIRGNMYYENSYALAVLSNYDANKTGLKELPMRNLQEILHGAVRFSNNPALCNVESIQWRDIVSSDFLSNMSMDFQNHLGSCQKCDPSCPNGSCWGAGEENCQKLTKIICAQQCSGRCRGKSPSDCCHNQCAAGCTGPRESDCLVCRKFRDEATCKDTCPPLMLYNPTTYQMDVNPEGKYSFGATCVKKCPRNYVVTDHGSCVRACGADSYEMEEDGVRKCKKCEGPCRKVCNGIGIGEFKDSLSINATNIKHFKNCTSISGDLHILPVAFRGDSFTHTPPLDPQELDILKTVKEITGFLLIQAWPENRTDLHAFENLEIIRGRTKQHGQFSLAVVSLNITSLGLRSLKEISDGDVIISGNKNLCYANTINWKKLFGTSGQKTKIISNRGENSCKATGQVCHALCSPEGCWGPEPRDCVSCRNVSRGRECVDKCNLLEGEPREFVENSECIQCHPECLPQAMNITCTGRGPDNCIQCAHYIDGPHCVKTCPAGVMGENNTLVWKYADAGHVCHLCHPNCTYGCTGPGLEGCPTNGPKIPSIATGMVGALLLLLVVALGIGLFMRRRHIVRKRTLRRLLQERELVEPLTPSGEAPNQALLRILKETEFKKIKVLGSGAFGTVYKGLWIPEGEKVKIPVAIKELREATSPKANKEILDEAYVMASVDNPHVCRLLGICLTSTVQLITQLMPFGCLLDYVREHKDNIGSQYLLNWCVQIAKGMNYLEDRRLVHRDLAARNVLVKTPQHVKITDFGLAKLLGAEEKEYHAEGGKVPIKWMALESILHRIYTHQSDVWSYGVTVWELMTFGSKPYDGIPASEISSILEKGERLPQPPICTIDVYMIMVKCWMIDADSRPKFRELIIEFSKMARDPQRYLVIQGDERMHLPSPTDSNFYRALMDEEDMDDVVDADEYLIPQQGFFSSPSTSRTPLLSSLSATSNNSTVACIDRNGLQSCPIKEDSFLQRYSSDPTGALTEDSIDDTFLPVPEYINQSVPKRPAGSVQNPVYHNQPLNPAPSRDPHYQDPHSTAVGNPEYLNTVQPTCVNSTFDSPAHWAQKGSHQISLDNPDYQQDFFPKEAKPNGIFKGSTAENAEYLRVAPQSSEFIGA

SMILES | IC50 (EGFR wildtype (WT); [1]) [nM] | IC50 (EGFR wildtype (WT); IC50 WT (nM), 100 μM ATP) [nM] | IC50 (EGFR Del19/C797S; [2]) [nM] | IC50 (EGFR Del19/C797S; [3]) [nM] | IC50 (EGFR L858R/T790M/C797S; [4]) [nM] | IC50 (EGFR L858R/T790M/C797S; [5]) [nM] | IC50 (EGFR Del19/T790M/C797S; [6]) [nM] | IC50 (EGFR Del19/T790M/C797S; [7]) [nM] | IC50 (EGFR L858R/C797S; [8]) [nM] | IC50 (EGFR L858R/C797S; [9]) [nM] | IC50 (EGFR wildtype (WT); [10]) [nM] | IC50 (EGFR Del19/C797S; [11]) [nM] | IC50 (EGFR L858R/T790M/C797S; [12]) [nM] | IC50 (EGFR Del19/T790M/C797S; [13]) [nM] | IC50 (EGFR L858R/C797S; [14]) [nM]
Cc1cnc(C#Cc2cnc(Nc3ccnc(-c4cnn(S(=O)(=O)C5CC5)c4)n3)cc2N[C@@H]2CCC[C@H](O)C2)cn1 [Example 170, (1 S,3R)-3-((2-((2-(1-(Cyclopropylsulfonyl)-1H-pyrazol-4-yl)pyrimidin-4-yl)amino)-5-((5-methylpyrazin-2-yl)ethynyl)pyridin-4-yl)amino)cyclohexan-1-ol] | 286 | > 10000 | 4.4 | 19.9 | 0.6 | 5.7 | 0.9 | 1 | 23.8 | 316 |  |  |  |  | 
O=S(=O)(C1CC1)n1cc(-c2nccc(Nc3cc(N[C@H]4CC[C@@H](O)CC4)c(C#Cc4ccc(NCCN5CCOCC5)cc4)cn3)n2)cn1 [Example 172, (1s,4s)-4-((2-((2-(1-(Cyclopropylsulfonyl)-1H-pyrazol-4-yl)pyrimidin-4-yl)amino)-5-((4-((2-morpholinoethyl)amino)phenyl)ethynyl)pyridin-4-yl)amino)cyclohexan-1-ol] | 68.4 |  | 14.1 |  | 4.8 |  | 4.6 |  | 11.5 |  | > 10000 | 32.4 | 14.5 | 6.9 | 124
O=S(=O)(C1CC1)n1cc(-c2nccc(Nc3cc(N[C@H]4CC[C@@H](O)CC4)c(C#Cc4cccc(NCCN5CCOCC5)c4)cn3)n2)cn1 [Example 173, (1s,4s)-4-((2-((2-(1-(Cyclopropylsulfonyl)-1H-pyrazol-4-yl)pyrimidin-4-yl)amino)-5-((3-((2-morpholinoethyl)amino)phenyl)ethynyl)pyridin-4-yl)amino)cyclohexan-1-ol] | 22.9 |  | 6.2 |  | 1.3 |  | 2.9 |  | 7.8 |  | > 10000 | 8.5 | 10.5 | 9.9 | 100
O=S(=O)(C1CC1)n1cc(-c2nccc(Nc3cc(N[C@H]4CC[C@@H](O)CC4)c(C#CC4(O)CCCCC4)cn3)n2)cn1 [Example 174, 1-((6-((2-(1-(Cyclopropylsulfonyl)-1H-pyrazol-4-yl)pyrimidin-4-yl)amino)-4-(((1 s, 4s)-4-hydroxycyclohexyl)amino)pyridin-3-yl)ethynyl)cyclohexan-1-ol] | 150 | > 10000 | 11 | 10.8 | 1.2 | 2.1 | 0.5 | 0.9 | 30.5 | 283 |  |  |  |  | 
CC1(CO)CCN(c2cc(Nc3ccnc(-c4cnn(S(=O)(=O)C5CC5)c4)n3)ncc2C#CC2(O)CCCCC2)CC1 [Example 175, 1-((6-((2-(1-(Cyclopropylsulfonyl)-1H-pyrazol-4-yl)pyrimidin-4-yl)amino)-4-(4-(hydroxymethyl)-4-methylpiperidin-1-yl)pyridin-3-yl)ethynyl)cyclohexan-1-ol] | 131 | > 10000 | 13.3 | 17.2 | 3.6 | 3.6 | 1.2 | 1.4 | 33.5 | 333 |  |  |  |  | 
O=S(=O)(C1CC1)n1cc(-c2nccc(Nc3cc(N[C@H]4CC[C@@H](O)CC4)c(C#CC4(O)CCCC4)cn3)n2)cn1 [Example 176, (1s,4s)-4-((2-((2-(1-(Cyclopropylsulfonyl)-1H-pyrazol-4-yl)pyrimidin-4-yl)amino)-5-((1-hydroxycyclopentyl)ethynyl)pyridin-4-yl)amino)cyclohexan-1-ol] | 40.1 | > 10000 | 3 | 3.6 | 0.3 | 0.8 | 0.5 | 0.4 | 14.2 | 104 |  |  |  |  | 
CC1(CO)CCN(c2cc(Nc3ccnc(-c4cnn(S(=O)(=O)C5CC5)c4)n3)ncc2C#CC2(O)CCCC2)CC1 [Example 177, 1-((6-((2-(1-(Cyclopropylsulfonyl)-1H-pyrazol-4-yl)pyrimidin-4-yl)amino)-4-(4-(hydroxymethyl)-4-methylpiperidin-1-yl)pyridin-3-yl)ethynyl)cyclopentan-1-ol] | 17.7 | 4870 | 2 | 2.5 | 0.4 | 0.7 | 0.6 | 0.5 | 7.5 | 66.5 |  |  |  |  | 
O=S(=O)(C1CC1)n1cc(-c2nccc(Nc3cc(N[C@H]4CC[C@@H](O)CC4)c(C#CC4CCOCC4)cn3)n2)cn1 [Example 178, (1s,4s)-4-((2-((2-(1-(Cyclopropylsulfonyl)-1H-pyrazol-4-yl)pyrimidin-4-yl)amino)-5-((tetrahydro-2H-pyran-4-yl)ethynyl)pyridin-4-yl)amino)cyclohexan-1-ol] | 9.5 | 8010 | 1.1 | 2.3 | 0.2 | 0.3 | 0.3 | 0.3 | 3 | 27 |  |  |  |  | 
CC1(CO)CCN(c2cc(Nc3ccnc(-c4cnn(S(=O)(=O)C5CC5)c4)n3)ncc2C#CC2CCOCC2)CC1 [Example 179, (1-(2-((2-(1-(Cyclopropylsulfonyl)-1H-pyrazol-4-yl)pyrimidin-4-yl)amino)-5-((tetrahydro-2H-pyran-4-yl)ethynyl)pyridin-4-yl)-4-methylpiperidin-4-yl)methanol] | 6.2 | 3880 | 0.8 | 1.9 | 0.2 | 0.3 | 0.4 | 0.5 | 1.5 | 13.4 |  |  |  |  | 
CN1CCC(C#Cc2cnc(Nc3ccnc(-c4cnn(S(=O)(=O)C5CC5)c4)n3)cc2N2CCC(C)(CO)CC2)C1 (centres unmarked) [Example 180, (1-(2-((2-(1-(Cyclopropylsulfonyl)-1H-pyrazol-4-yl)pyrimidin-4-yl)amino)-5-((1-methylpyrrolidin-3-yl)ethynyl)pyridin-4-yl)-4-methylpiperidin-4-yl)methanol] | 2.8 | 1100 | 0.5 | 0.3 | 0.1 | 0.1 | 0.2 | 0.1 | 0.4 | 2.7 |  |  |  |  | 
CN1CCC(C#Cc2cnc(Nc3ccnc(-c4cnn(S(=O)(=O)C5CC5)c4)n3)cc2NC2CCC(O)CC2)C1 (centres unmarked) [Example 181, (1s,4s)-4-((2-((2-(1-(Cyclopropylsulfonyl)-1H-pyrazol-4-yl)pyrimidin-4-yl)amino)-5-((1-methylpyrrolidin-3-yl)ethynyl)pyridin-4-yl)amino)cyclohexan-1-ol] | 6.1 | 2920 | 0.7 | 0.6 | 0.05 | 0.1 | 0.1 | 0.1 | 0.6 | 6 |  |  |  |  | 
CN1CCC(C#Cc2cnc(Nc3ccnc(-c4cnn(S(=O)(=O)C5CC5)c4)n3)cc2N2CCC(C)(CO)CC2)CC1 [Example 182, (1-(2-((2-(1-(Cyclopropylsulfonyl)-1H-pyrazol-4-yl)pyrimidin-4-yl)amino)-5-((1-methylpiperidin-4-yl)ethynyl)pyridin-4-yl)-4-methylpiperidin-4-yl)methanol] | 1.8 | 648 | 0.4 | 0.3 | 0.04 | 0.1 | 0.1 | 0.1 | 0.4 | 1.7 |  |  |  |  | 
CC1(C#Cc2cnc(Nc3ccnc(-c4cnn(S(=O)(=O)C5CC5)c4)n3)cc2N2CCC(C)(CO)CC2)CCOCC1 [Example 183, (1-(2-((2-(1-(Cyclopropylsulfonyl)-1H-pyrazol-4-yl)pyrimidin-4-yl)amino)-5-((4-methyltetrahydro-2H-pyran-4-yl)ethynyl)pyridin-4-yl)-4-methylpiperidin-4-yl)methanol] | 146 | > 10000 | 11.7 | 43.9 | 0.9 | 4.1 | 2 | 1.9 | 26.9 | 400 |  |  |  |  | 
O=S(=O)(C1CC1)n1cc(-c2nccc(Nc3cc(N[C@H]4CC[C@@H](O)CC4)c(C#Cc4ccc(CN5CCOCC5)cn4)cn3)n2)cn1 [Example 184, (1s,4s)-4-((2-((2-(1-(Cyclopropylsulfonyl)-1H-pyrazol-4-yl)pyrimidin-4-yl)amino)-5-((5-(morpholinomethyl)pyridin-2-yl)ethynyl)pyridin-4-yl)amino)cyclohexan-1-ol] | 11.7 | > 10000 | 2.3 | 3.5 | 0.2 | 2.1 | 0.4 | 1.5 | 3.2 | 94.1 |  |  |  |  | 
